What was measured:
Test in all cases: Eurofins KinaseProfiler off-target kinase inhibition
Type in all cases: biochemical
ACTR2(h) = target: T1, ACTR2(h) (Homo sapiens, UniProt P27037)
T1 construct: purchased Eurofins (KinaseProfiler platform)
Protocol: (§1) In order to investigate the specificity of the inhibition of the target by the compound, in this study, the activity and selectivity of test compound 1 on the off-target kinases in related pathways were tested on the Eurofins kinaseProfiler™ platform, and compound screening and analysis were conducted using IC50 value as the indicator.
(§2) Compound 1 was detected for each selected kinase using the standard Eurofins Kinase Profiler™ protocol, which followed the relevant standard operating procedures. The IC50 values of the inhibitory activity of the test compound 1 on 67 kinases including Abl(h), B-Raf(h), BTK(h) and JAK(h) were analyzed.

Abl(h) = target: T2, Abl(h) (Homo sapiens, UniProt P00519)
T2 construct: purchased Eurofins (KinaseProfiler platform)
Protocol: as §1, §2

Aurora-B(h) = target: T3, Aurora-B(h) (Homo sapiens, UniProt Q96GD4)
T3 construct: purchased Eurofins (KinaseProfiler platform)
Protocol: as §1, §2

B-Raf(h) = target: T4, B-Raf(h) (Homo sapiens, UniProt P15056)
T4 construct: purchased Eurofins (KinaseProfiler platform)
Protocol: as §1, §2

BRK(h) = target: T5, BRK(h) (Homo sapiens, UniProt Q13882)
T5 construct: purchased Eurofins (KinaseProfiler platform)
Protocol: as §1, §2

CDK4/cyclinD3(h) = target: T6, CDK4/cyclinD3(h) (Homo sapiens, UniProt P11802)
T6 construct: purchased Eurofins (KinaseProfiler platform)
Protocol: as §1, §2

CDK6/cyclinD3(h) = target: T7, CDK6/cyclinD3(h) (Homo sapiens, UniProt Q00534)
T7 construct: purchased Eurofins (KinaseProfiler platform)
Protocol: as §1, §2

CHK1(h) = target: T8, CHK1(h) (Homo sapiens, UniProt O14757)
T8 construct: purchased Eurofins (KinaseProfiler platform)
Protocol: as §1, §2

EGFR(h) = target: T9, EGFR(h) (Homo sapiens, UniProt P00533)
T9 construct: purchased Eurofins (KinaseProfiler platform)
Protocol: as §1, §2

FGFR2(h) = target: T10, FGFR2(h) (Homo sapiens, UniProt P21802)
T10 construct: purchased Eurofins (KinaseProfiler service)
Protocol: as §1, §2

FGFR3(h) = target: T11, FGFR3(h) (Homo sapiens, UniProt P22607)
T11 construct: purchased Eurofins (KinaseProfiler platform)
Protocol: as §1, §2

Flt3(h) = target: T12, Flt3(h) (Homo sapiens, UniProt P36888)
T12 construct: purchased Eurofins (KinaseProfiler platform)
Protocol: as §1, §2

Hck(h)activated = target: T13, Hck(h)activated (Homo sapiens, UniProt P08631)
T13 construct: purchased Eurofins (KinaseProfiler service)
Protocol: as §1, §2

IKKβ(h) = target: T14, IKKβ(h) (Homo sapiens, UniProt O14920)
T14 construct: purchased Eurofins (KinaseProfiler platform)
Protocol: as §1, §2

Itk(h) = target: T15, Itk(h) (Homo sapiens, UniProt Q08881)
T15 construct: purchased Eurofins (KinaseProfiler service)
Protocol: as §1, §2

JAK1(h) = target: T16, JAK1(h) (Homo sapiens, UniProt P23458)
T16 construct: purchased Eurofins (KinaseProfiler service)
Protocol: as §1, §2

JAK2(h) = target: T17, JAK2(h) (Homo sapiens, UniProt O60674)
T17 construct: purchased Eurofins (KinaseProfiler service)
Protocol: as §1, §2

JNK1α1(h) = target: T18, JNK1α1(h) (Homo sapiens, UniProt P45983)
T18 construct: purchased Eurofins (KinaseProfiler service)
Protocol: as §1, §2

JNK3(h) = target: T19, JNK3(h) (Homo sapiens, UniProt P53779)
T19 construct: purchased Eurofins (KinaseProfiler service)
Protocol: as §1, §2

Lck(h)activated = target: T20, Lck(h)activated (Homo sapiens, UniProt P06239)
T20 construct: purchased Eurofins (KinaseProfiler service)
Protocol: as §1, §2

Lyn(h) = target: T21, Lyn(h) (Homo sapiens, UniProt P07948)
T21 construct: purchased Eurofins (KinaseProfiler service)
Protocol: as §1, §2

MAPK1(h) = target: T22, MAPK1(h) (Homo sapiens, UniProt P27361)
T22 construct: purchased Eurofins (KinaseProfiler service)
Protocol: as §1, §2

MAPKAP-K2(h) = target: T23, MAPKAP-K2(h) (Homo sapiens, UniProt P49137)
T23 construct: purchased Eurofins (KinaseProfiler service)
Protocol: as §1, §2

MEK1(h) = target: T24, MEK1(h) (Homo sapiens, UniProt Q02750)
T24 construct: purchased Eurofins (KinaseProfiler service)
Protocol: as §1, §2

MKK4(m) = target: T25, MKK4(m) (Mus musculus, UniProt P47809)
T25 construct: purchased Eurofins (KinaseProfiler service)
Protocol: as §1, §2

PDGFRα(h) = target: T26, PDGFRα(h) (Homo sapiens, UniProt P16234)
T26 construct: purchased Eurofins (KinaseProfiler service)
Protocol: as §1, §2

PKBα(h) = target: T27, PKBα(h) (Homo sapiens, UniProt P31749)
T27 construct: purchased Eurofins (KinaseProfiler platform)
Protocol: as §1, §2

ROCK-II(h) = target: T28, ROCK-II(h) (Homo sapiens, UniProt O75116)
T28 construct: purchased Eurofins (KinaseProfiler platform)
Protocol: as §1, §2

Rse(h) = target: T29, Rse(h) (Homo sapiens, UniProt Q06418)
T29 construct: purchased Eurofins (KinaseProfiler platform)
Protocol: as §1, §2

SAPK2a(h) = target: T30, SAPK2a(h) (Homo sapiens, UniProt Q16539)
T30 construct: purchased Eurofins (KinaseProfiler platform)
Protocol: as §1, §2

SAPK2b(h) = target: T31, SAPK2b(h) (Homo sapiens, UniProt Q15759)
T31 construct: purchased Eurofins (KinaseProfiler platform)
Protocol: as §1, §2

SAPK4(h) = target: T32, SAPK4(h) (Homo sapiens, UniProt O15264)
T32 construct: purchased Eurofins (KinaseProfiler platform)
Protocol: as §1, §2

Src(1-530)(h) = target: T33, Src(1-530)(h) (Homo sapiens, UniProt P12931)
T33 construct: Src(1-530)(h); purchased Eurofins (KinaseProfiler platform)
Protocol: as §1, §2

TGFBR1(h) = target: T34, TGFBR1(h) (Homo sapiens, UniProt P36897)
T34 construct: purchased Eurofins (KinaseProfiler platform)
Protocol: as §1, §2

TYK2(h) = target: T35, TYK2(h) (Homo sapiens, UniProt P29597)
T35 construct: purchased Eurofins (KinaseProfiler platform)
Protocol: as §1, §2

Tie2(h) = target: T36, Tie2(h) (Homo sapiens, UniProt Q02763)
T36 construct: purchased Eurofins (KinaseProfiler platform)
Protocol: as §1, §2

Txk(h) = target: T37, Txk(h) (Homo sapiens, UniProt P42681)
T37 construct: purchased Eurofins (KinaseProfiler platform)
Protocol: as §1, §2

mTOR(h) = target: T38, mTOR(h) (Homo sapiens, UniProt P42345)
T38 construct: purchased Eurofins (KinaseProfiler service)
Protocol: as §1, §2

mTOR/FKBP12(h) = target: T39, mTOR/FKBP12(h) (Homo sapiens, UniProt P42345)
T39 construct: purchased Eurofins (KinaseProfiler service)
Protocol: as §1, §2

T19 sequence (P53779 whole entry): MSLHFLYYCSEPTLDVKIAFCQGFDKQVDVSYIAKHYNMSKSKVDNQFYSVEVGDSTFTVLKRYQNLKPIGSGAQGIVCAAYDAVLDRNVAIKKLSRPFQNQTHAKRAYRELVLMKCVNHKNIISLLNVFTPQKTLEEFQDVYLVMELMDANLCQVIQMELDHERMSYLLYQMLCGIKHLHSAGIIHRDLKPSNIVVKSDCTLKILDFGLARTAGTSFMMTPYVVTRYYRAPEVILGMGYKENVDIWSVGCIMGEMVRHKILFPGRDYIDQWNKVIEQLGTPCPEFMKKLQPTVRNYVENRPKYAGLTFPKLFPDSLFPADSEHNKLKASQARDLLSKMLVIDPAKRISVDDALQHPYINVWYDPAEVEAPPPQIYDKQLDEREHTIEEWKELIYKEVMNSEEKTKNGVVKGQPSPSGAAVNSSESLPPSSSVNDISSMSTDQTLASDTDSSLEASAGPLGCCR
T11 sequence (P22607 23-806): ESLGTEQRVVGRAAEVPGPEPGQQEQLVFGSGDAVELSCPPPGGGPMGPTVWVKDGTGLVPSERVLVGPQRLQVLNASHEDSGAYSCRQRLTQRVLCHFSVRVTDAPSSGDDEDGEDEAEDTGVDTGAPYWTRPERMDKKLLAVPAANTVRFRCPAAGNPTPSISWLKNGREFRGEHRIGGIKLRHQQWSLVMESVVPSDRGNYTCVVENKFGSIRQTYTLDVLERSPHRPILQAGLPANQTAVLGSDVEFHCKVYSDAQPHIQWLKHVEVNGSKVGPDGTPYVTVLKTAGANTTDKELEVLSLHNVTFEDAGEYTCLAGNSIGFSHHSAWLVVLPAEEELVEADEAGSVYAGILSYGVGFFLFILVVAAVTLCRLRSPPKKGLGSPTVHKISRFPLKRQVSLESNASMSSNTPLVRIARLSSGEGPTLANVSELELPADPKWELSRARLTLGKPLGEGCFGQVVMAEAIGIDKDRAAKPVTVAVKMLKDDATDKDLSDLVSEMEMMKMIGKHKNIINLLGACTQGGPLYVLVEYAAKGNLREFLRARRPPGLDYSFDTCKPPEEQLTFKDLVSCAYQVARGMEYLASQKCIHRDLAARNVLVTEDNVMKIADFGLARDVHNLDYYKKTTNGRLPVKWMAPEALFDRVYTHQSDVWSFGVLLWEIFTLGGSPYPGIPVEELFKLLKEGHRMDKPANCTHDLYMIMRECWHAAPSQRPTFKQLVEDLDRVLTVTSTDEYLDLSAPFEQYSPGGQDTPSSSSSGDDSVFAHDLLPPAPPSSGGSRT
T2 sequence (P00519 whole entry): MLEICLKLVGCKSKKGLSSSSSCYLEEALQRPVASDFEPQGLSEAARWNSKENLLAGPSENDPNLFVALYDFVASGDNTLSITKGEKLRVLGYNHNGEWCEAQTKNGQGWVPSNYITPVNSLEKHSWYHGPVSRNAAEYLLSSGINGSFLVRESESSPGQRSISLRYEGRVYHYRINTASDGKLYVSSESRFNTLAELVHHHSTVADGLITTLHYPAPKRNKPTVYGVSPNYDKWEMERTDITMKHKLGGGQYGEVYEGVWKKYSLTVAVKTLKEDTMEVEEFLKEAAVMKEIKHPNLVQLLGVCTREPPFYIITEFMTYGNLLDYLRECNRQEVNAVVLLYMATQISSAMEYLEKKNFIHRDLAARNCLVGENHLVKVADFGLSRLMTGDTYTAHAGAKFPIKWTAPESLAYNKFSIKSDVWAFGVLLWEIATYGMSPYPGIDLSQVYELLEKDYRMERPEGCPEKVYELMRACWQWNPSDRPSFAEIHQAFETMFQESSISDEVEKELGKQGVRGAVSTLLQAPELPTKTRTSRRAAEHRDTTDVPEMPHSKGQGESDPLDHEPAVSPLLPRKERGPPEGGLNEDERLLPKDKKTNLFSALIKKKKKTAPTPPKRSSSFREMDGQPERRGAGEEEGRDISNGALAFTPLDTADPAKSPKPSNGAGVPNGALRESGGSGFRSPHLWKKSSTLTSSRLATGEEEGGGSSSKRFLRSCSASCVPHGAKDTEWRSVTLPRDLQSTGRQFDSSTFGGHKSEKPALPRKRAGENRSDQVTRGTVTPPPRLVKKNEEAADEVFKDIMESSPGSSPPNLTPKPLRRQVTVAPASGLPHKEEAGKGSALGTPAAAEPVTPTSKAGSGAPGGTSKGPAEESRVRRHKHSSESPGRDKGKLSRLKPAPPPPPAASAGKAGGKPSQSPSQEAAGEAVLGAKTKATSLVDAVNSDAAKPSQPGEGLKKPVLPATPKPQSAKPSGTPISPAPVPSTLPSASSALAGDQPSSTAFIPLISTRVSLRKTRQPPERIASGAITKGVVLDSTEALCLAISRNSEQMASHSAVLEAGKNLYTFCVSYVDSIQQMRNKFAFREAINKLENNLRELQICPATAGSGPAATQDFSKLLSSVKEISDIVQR
T21 sequence (P07948 whole entry): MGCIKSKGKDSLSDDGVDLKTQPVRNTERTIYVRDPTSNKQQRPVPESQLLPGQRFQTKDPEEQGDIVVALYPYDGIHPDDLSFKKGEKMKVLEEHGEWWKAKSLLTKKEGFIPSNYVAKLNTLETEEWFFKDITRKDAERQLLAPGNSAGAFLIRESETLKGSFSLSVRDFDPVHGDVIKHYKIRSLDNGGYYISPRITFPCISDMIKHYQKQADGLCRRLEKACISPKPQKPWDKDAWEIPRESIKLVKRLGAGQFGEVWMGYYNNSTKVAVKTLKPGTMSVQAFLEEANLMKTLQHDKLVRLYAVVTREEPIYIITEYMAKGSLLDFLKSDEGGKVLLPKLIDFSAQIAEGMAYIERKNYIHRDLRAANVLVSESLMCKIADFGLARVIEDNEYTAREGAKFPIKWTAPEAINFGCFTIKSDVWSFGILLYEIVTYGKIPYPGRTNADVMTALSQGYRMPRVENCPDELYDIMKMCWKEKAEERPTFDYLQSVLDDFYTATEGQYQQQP
T6 sequence (P11802 whole entry): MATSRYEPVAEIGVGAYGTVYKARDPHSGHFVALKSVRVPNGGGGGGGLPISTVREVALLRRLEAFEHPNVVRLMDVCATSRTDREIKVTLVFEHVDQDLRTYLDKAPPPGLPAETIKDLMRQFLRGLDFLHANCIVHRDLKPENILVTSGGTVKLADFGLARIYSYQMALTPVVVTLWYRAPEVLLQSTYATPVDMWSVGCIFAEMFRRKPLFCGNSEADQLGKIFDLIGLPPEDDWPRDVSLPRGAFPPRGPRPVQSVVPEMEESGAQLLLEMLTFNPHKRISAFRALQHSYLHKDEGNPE
T6 sequence (P30281 whole entry partner): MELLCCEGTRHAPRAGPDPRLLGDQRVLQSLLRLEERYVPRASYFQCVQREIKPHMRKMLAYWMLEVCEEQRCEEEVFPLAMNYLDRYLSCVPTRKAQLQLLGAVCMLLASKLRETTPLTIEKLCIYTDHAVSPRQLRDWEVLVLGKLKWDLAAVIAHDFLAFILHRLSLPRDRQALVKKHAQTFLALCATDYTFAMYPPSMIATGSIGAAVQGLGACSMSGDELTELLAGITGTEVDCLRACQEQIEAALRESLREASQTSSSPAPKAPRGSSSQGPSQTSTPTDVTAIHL
T8 sequence (O14757 whole entry): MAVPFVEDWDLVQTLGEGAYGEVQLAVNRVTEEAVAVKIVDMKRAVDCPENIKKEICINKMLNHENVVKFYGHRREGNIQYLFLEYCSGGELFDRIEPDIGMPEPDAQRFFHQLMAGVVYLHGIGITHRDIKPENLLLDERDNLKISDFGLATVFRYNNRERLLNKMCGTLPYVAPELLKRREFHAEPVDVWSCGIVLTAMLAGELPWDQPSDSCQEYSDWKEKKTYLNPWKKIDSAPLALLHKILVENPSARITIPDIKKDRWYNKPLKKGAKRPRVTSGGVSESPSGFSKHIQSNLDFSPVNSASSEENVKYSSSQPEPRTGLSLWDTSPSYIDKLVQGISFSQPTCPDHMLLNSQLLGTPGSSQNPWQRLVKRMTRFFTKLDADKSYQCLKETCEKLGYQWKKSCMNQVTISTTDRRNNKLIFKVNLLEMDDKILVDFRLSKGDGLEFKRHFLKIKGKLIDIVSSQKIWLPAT
T32 sequence (O15264 whole entry): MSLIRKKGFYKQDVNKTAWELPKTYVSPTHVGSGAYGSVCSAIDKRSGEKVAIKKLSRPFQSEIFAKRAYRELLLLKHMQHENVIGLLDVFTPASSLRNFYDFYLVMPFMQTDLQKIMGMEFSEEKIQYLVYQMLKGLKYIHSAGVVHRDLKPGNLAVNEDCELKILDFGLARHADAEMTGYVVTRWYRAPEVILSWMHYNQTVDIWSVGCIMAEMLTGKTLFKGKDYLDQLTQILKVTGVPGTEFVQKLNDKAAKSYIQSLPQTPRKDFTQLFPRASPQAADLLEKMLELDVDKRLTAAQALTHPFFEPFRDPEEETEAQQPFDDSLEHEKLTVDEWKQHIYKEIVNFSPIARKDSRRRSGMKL
T23 sequence (P49137 whole entry): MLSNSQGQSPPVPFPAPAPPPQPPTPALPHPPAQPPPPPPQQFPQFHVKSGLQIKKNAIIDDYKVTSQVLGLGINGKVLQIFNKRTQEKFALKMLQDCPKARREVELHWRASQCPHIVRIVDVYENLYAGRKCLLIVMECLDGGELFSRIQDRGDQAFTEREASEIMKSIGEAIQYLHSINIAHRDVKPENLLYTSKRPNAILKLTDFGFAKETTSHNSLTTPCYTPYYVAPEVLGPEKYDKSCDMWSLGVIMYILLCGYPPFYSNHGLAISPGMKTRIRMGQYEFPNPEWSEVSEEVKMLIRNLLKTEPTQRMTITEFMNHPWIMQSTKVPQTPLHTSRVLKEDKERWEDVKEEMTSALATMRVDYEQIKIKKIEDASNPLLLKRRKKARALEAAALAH

c1cn2c(n1)c(Nc1ccc(N3CCOCC3)cc1)nc1ccc(-c3cn[nH]c3)cc12 [Compound 1]
IC50 (ACTR2(h)): > 10000 nM
IC50 (Abl(h)): 152 nM
IC50 (Aurora-B(h)): 232 nM
IC50 (B-Raf(h)): 91 nM
IC50 (BRK(h)): 775 nM
IC50 (CDK4/cyclinD3(h)): > 10000 nM
IC50 (CDK6/cyclinD3(h)): > 10000 nM
IC50 (CHK1(h)): > 10000 nM
IC50 (EGFR(h)): > 10000 nM
IC50 (FGFR2(h)): > 10000 nM
IC50 (FGFR3(h)): > 10000 nM
IC50 (Flt3(h)): 12 nM
IC50 (Hck(h)activated): 418 nM
IC50 (IKKβ(h)): > 10000 nM
IC50 (Itk(h)): 1850 nM
IC50 (JAK1(h)): 663 nM
IC50 (JAK2(h)): 141 nM
IC50 (JNK1α1(h)): 1170 nM
IC50 (JNK3(h)): 279 nM
IC50 (Lck(h)activated): 1310 nM
IC50 (Lyn(h)): 934 nM
IC50 (MAPK1(h)): > 10000 nM
IC50 (MAPKAP-K2(h)): > 10000 nM
IC50 (MEK1(h)): > 10000 nM
IC50 (MKK4(m)): > 10000 nM
IC50 (PDGFRα(h)): 2700 nM
IC50 (PKBα(h)): > 10000 nM
IC50 (ROCK-II(h)): 499 nM
IC50 (Rse(h)): > 10000 nM
IC50 (SAPK2a(h)): > 10000 nM
IC50 (SAPK2b(h)): > 10000 nM
IC50 (SAPK4(h)): > 10000 nM
IC50 (Src(1-530)(h)): 827 nM
IC50 (TGFBR1(h)): > 10000 nM
IC50 (TYK2(h)): 117 nM
IC50 (Tie2(h)): 2060 nM
IC50 (Txk(h)): 227 nM
IC50 (mTOR(h)): > 10000 nM
IC50 (mTOR/FKBP12(h)): > 10000 nM

Reference: patent publication US12637469B2, “1H-pyrazole derivative and application thereof as dual target inhibitor of Syk and VEGFR2” (Ocumension Therapeutics (Suzhou) Co., Ltd., priority 2020, dated 2026)
